In patent US11738120B1, “Synthesis of taurolidine, purity profiles and polymorphs” (CorMedix Inc., priority 2022, dated 2023):
Where two headings read alike, the source gives them in different places.

What was measured:
[1] = Solubility of taurolidine polymorphs in aqueous citric acid; format: physicochemical; settings: in 26.1 mg/mL aqueous citric acid, at T=25° C.
Procedure: Taurolidine Polymorphs A and B synthesized according to the Present Synthesis may both be soluble in 26.1 mg/mL aqueous citric acid, at T=25° C.

[2] = cited from earlier work; for ΔpH @ −20° C.: pH shift during freezing
[3] = cited from earlier work
[4] = Long term stability tests of taurolidine solution with citric acid and sodium citrate; format: physicochemical; settings: citric acid and sodium citrate in combination; compared with taurolidine solution prepared with polyvinylpyrrolidone (PVP)
From the text: The composition employed in the practice of the present invention preferably also contains a pharmacologically acceptable carrier solution, such as, water for injection.

Row | SMILES | pH @ 25° C. [2] | ΔpH @ −20° C. [2] | also measured
1 | O=S1(=O)CCN(CN2CCS(=O)(=O)NC2)CN1 [Polymorph A, taurolidine] | – | – | solubility [1]: soluble
2 | O=C(O)CC(O)(CC(=O)O)C(=O)O [Citric acid] | 6.2 | −0.2 | –
3 | NC(CO)(CO)CO [Tromethamine] | 7.2 | +2.1 | –
4 | O=C(O)CC(O)C(=O)O (stereo not drawn) [Malic acid] | 5.0 | −0.3 | pKa ([3]; second pKa value): 3.4, 5.1
5 | CC(=O)O [Acetic acid] | 5.6 | +0.5 | –
6 | N[C@@H](CCC(=O)O)C(=O)O [Glutamic acid] | – | – | pKa ([3]; second pKa value): 4.1; pKa ([3]; third pKa value printed in the cell): 9.5
7 | N[C@@H](Cc1c[nH]cn1)C(=O)O [Histidine] | 5.4 | +0.8 | –
8 | O=S1(=O)CCN(CN2CCS(=O)(=O)NC2)CN1 [taurolidine] | – | – | stability and solubility of taurolidine in solution [4]: increases the stability and solubility
